Values after ≈ are worked out from the molar mass of the structure shown.

For this data set the following is noted: buffer; pH 7.4; 200.0 µM.
Consider `Nc1ccn(C2CC(O)C(CO)O2)c(=O)n1` (centres undefined), for which the solubility (kinetic) is above 34.1 µg/mL. The molecule `O=C(NC1CCCCCCC1)c1ccc(Br)o1` showed a kinetic solubility of 37.2 µg/mL (≈ 124 µM).

In the case of `Cc1nn(C(=O)/C(C#N)=C/N(C)C)c(C)c1C`, the kinetic solubility was above 34.8 µg/mL. The figure for `COc1ccc(OCC(O)CNC(=O)c2ccccc2)cc1` (centres undefined) is 40.1 µg/mL (≈ 133 µM); for `Cc1cccn2c(=O)c(C=O)c(NCc3ccccc3)nc12` it is 0.2 µg/mL (≈ 0.682 µM).

`C=CCn1c(=S)[nH]c2sc3c(c2c1=O)CCCC3` displayed a solubility (kinetic) of 14.7 µg/mL (≈ 52.8 µM).

Take `O=C(CCNc1ccc(Cc2ccncc2)cc1)c1ccc([N+](=O)[O-])cc1`: the kinetic solubility turned out to be 11.6 µg/mL (≈ 32.1 µM).

`CCOC(=O)c1cc(C)n(-c2ccc(Cl)cc2)c1C` showed a solubility (kinetic) of 1.2 µg/mL (≈ 4.32 µM). For `CCOc1ccc2c(c1)[nH]c(=S)n2C`, the solubility (kinetic) is above 31.2 µg/mL. The figure for `CCOc1ccc(NC(=S)Nc2ccc(F)cc2)cc1` is 8.3 µg/mL (≈ 28.6 µM); for `Cn1c(N)c(C(=O)COC(=O)/C=C/c2ccc(Cl)c(Cl)c2)c(=O)n(C)c1=O` it is 2.9 µg/mL (≈ 7.03 µM); for `CCOc1ccc(NC(=O)CCN2CCN(C)CC2)cc1` it is above 43.7 µg/mL.

Molecule `CCC(=O)Nc1ccc(C(=O)COC(=O)Cc2ccsc2)cc1` yielded a solubility (kinetic) of 15.9 µg/mL (≈ 48 µM). The figure for `COCCNC(=S)N1CCC(Cc2ccccc2)CC1` is above 43.9 µg/mL. The figure for `CN1CCN(CC#CCC2(O)c3ccccc3-c3ccccc32)CC1` is 42.1 µg/mL (≈ 127 µM). The figure for `CCC(=O)NCCc1nc2cc(NC(=O)c3cccs3)ccc2n1C` is above 53.5 µg/mL; for `OCCNCCc1c[nH]c2ccc(OCc3ccccc3)cc12` it is above 46.6 µg/mL. Regarding `COCCNC(=S)c1ccc(Br)cc1`, the kinetic solubility was 34.5 µg/mL (≈ 126 µM).

`CC1CCC(N2CCN(c3ccc([N+](=O)[O-])cc3)CC2)CC1` (centres undefined): the solubility (kinetic) was determined as 19.1 µg/mL (≈ 63 µM). The figure for `COc1ccccc1C(=O)NCCC(=O)NC1=NCCS1` is above 46.1 µg/mL; for `CCC(=O)Nc1ccc(C(=O)CSc2nc(N)cc(N)n2)cc1` it is 48.3 µg/mL (≈ 146 µM); for `O=C(CN1C(=O)NC2(CCCCCCC2)C1=O)NCc1ccc(F)cc1` it is 42.9 µg/mL (≈ 119 µM). Consider `Cc1csc2nc(O)c(C(=O)NCCCc3ccccc3)c(=O)n12`, for which the kinetic solubility was determined as 4.2 µg/mL (≈ 12.2 µM). The figure for `COc1ccc(NC(=O)/C(=C/c2cccs2)NC(=O)c2ccco2)cc1` is 5 µg/mL (≈ 13.6 µM); for `O=C(COC(=O)c1cccnc1Cl)NCCC1=CCCCC1` it is above 48.4 µg/mL; for `CSc1ccccc1NC(=O)CCn1c(=O)oc2ccccc21` it is above 49.3 µg/mL.

The molecule `O=S(=O)(NCCC1=CCCCC1)c1ccc(F)cc1` gave a solubility (kinetic) of 16.9 µg/mL (≈ 59.6 µM). The figure for `O=C(CNC(=O)COc1ccccc1)NCCc1ccccn1` is above 47 µg/mL. The figure for `CCCn1nc(C(=O)N2CCN(c3ccccn3)CC2)c2ccccc2c1=O` is above 56.6 µg/mL; for `Cc1c(CCOC(=O)c2ccc(Cl)cc2Cl)sc[n+]1CC(=O)c1ccccc1.[Br-]` it is above 77.3 µg/mL.

As to `Cc1ccccc1OC(C)C(=O)Nc1ccc2c(c1)OCCO2` (centres undefined), the kinetic solubility was 40.8 µg/mL (≈ 130 µM). On to `CC1Cc2ccccc2N1C(=O)CN1CCC(C(N)=O)CC1` (centres undefined), for which the solubility (kinetic) is above 45.2 µg/mL. The figure for `C/C(=N\Nc1ccccc1C(=O)O)c1ccncc1` is above 38.3 µg/mL; for `O=C(O)c1ccc(S(=O)(=O)N2CCCC2)cc1` it is 37.6 µg/mL (≈ 147 µM); for `O=C(Nc1ccc2[nH]c(=O)[nH]c2c1)c1ccc(Br)o1` it is 8.3 µg/mL (≈ 25.8 µM).

For `COc1cc2[nH]c(C(=O)NCCc3ccccc3)cc2c(OC)c1OC`, the solubility (kinetic) stood at 20.3 µg/mL (≈ 57.3 µM). The figure for `O=C(Nc1cc2c3c(c1)CC(=O)N3CCC2)c1ccc(Cl)cc1` is 6.6 µg/mL (≈ 20.2 µM); for `O=C(/C=C/c1ccccc1)NC(=S)Nc1ccccc1O` it is 0.5 µg/mL (≈ 1.68 µM); for `Cc1ccc(NC(=O)CN(C)C(=O)COC(=O)c2ccc(NC(=O)CC#N)cc2)cc1` it is 36 µg/mL (≈ 85.2 µM). The figure for `O=C(Nc1ccc2c(c1)CCC2)Nc1ccccc1F` is 1.6 µg/mL (≈ 5.92 µM); for `O=C(NC1CCCCC1)c1cc(-c2cccs2)on1` it is 0.9 µg/mL (≈ 3.26 µM). The figure for `CCOc1ccc(C)cc1S(=O)(=O)n1cnc2ccccc21` is 1 µg/mL (≈ 3.16 µM); for `COc1ccc(C(=O)NCC2OCCc3ccccc32)cc1OC` (centres undefined) it is 11.8 µg/mL (≈ 36 µM).

For the molecule `Cc1ccc(N2C(=O)[C@@H]3C(c4cccnc4)=NO[C@@H]3C2=O)cc1`, the kinetic solubility is above 46.1 µg/mL. For the molecule `Cc1ccc(S(=O)(=O)NCc2csc(-c3cccs3)n2)cc1`, the solubility (kinetic) is 0.7 µg/mL (≈ 2 µM). `CC(=O)Nc1ccc(-c2cn3c(n2)SCC3)cc1` gave a kinetic solubility of 34.4 µg/mL (≈ 133 µM). Consider `CCOc1ncccc1C(=O)OCc1c(F)cccc1Cl`, for which the solubility (kinetic) is 4.6 µg/mL (≈ 14.9 µM). `CCCn1c(N)c(N2CCCCC2)c(=O)n(CC(=O)Nc2ccc(C(C)=O)cc2)c1=O` gave a kinetic solubility of 14.8 µg/mL (≈ 34.6 µM). The figure for `Cc1cc(C)c2nc(/N=C(\N)NC(=O)c3ccccc3)nc(C)c2c1` is 1.3 µg/mL (≈ 3.9 µM). The figure for `COCCCn1c(SCC(=O)N2CCOCC2)nc2ccccc2c1=O` is 52.2 µg/mL (≈ 138 µM). `O=C(Nc1ccsc1C(=O)O)c1ccccc1Cl` came in with a solubility (kinetic) above 42.3 µg/mL.

In the case of `Cl.O=S(=O)(N1CCCCCC1)N1CCNCC1`, the solubility (kinetic) is above 42.6 µg/mL.

Take `CC1Cc2ccccc2N1C(=O)c1ccc2nccnc2c1` (centres undefined): the solubility (kinetic) is above 43.4 µg/mL. The figure for `O=C1N=C(N2CCCC2)S/C1=C\C=C\c1ccccc1` is 10.2 µg/mL (≈ 35.9 µM). The figure for `O=C(CSCc1c(F)cccc1F)Nc1ccccc1` is 37.7 µg/mL (≈ 129 µM); for `Cc1ccc(NC(=O)CN(C)C(=O)C2CC(=O)N(Cc3ccccc3)C2)cc1` (centres undefined) it is 44.7 µg/mL (≈ 118 µM). The figure for `CCOC(=O)c1ccc(NC(=S)NCc2ccccc2)cc1` is below 0.3 µg/mL; for `CC(=O)Nc1ccc(N2CCN(c3ccc(C(F)(F)F)cn3)CC2)nc1` it is 0.8 µg/mL (≈ 2.19 µM).

Molecule `Cc1ccnc(SCC(=O)c2cc3ccccc3o2)n1` showed a solubility (kinetic) of 1.3 µg/mL (≈ 4.57 µM). The figure for `COC(=O)/C(=N\OCc1ccc(C#N)cc1)c1c(C)nn(C)c1C` is above 49 µg/mL; for `CCCc1cc(=O)[nH]c(SCC(=O)N2c3ccccc3NC(=O)C2(C)C)n1` it is 57.4 µg/mL (≈ 149 µM). The figure for `CCCCc1nnc(SCC(=O)Nc2nccs2)n1C` is above 46.7 µg/mL. The figure for `CN1CCN(C(=O)c2cc3cc(Cl)ccc3[nH]2)CC1.Cl` is above 47.1 µg/mL. `CC(=O)Nc1ccc(S(=O)(=O)Nc2ccc3nc(C)sc3c2)cc1` yielded a solubility (kinetic) of 14.6 µg/mL (≈ 40.4 µM). The figure for `COc1cccc(C(=O)Nc2ccc(C(=O)c3ccccc3)cc2)c1` is 7.4 µg/mL (≈ 22.3 µM). The figure for `O=C(COC(=O)c1ccc(Br)c(S(=O)(=O)N2CCOCC2)c1)NC1CC1` is above 67.1 µg/mL. The figure for `Cc1sc2c(c1C)C(=O)/C(=C\Nc1ccccn1)S(=O)(=O)N2C` is below 0.2 µg/mL; for `COC(=O)c1ccc(NC(=S)NC2CC2)cc1` it is above 37.5 µg/mL; for `O=C(CSc1nc2ccccc2[nH]1)NC1CCCC1` it is 38.7 µg/mL (≈ 141 µM). `O=C(NC(=S)Nc1ccc2[nH]c(=O)[nH]c2c1)c1ccccc1F` had a kinetic solubility of 1.1 µg/mL (≈ 3.33 µM). The figure for `COc1ccc(NC(=O)C2CC(=O)n3c(nc4ccccc43)N2)cc1` (centres undefined) is 0.3 µg/mL (≈ 0.892 µM); for `O=C(/C=C/c1ccccc1Cl)NCCCn1ccnc1` it is 38.9 µg/mL (≈ 134 µM); for `Cc1cccc(NC(=O)COC(=O)c2ccc([N+](=O)[O-])o2)c1C` it is 17.2 µg/mL (≈ 54 µM).

`CC(C)c1ccccc1NC(=O)COC(=O)c1cccnc1` showed a kinetic solubility above 44.8 µg/mL. The figure for `O=C(CC12CC3CC(CC(C3)C1)C2)NCc1ccc(F)cc1` is below 0.6 µg/mL; for `O=C(COC(=O)C1CCCCC1)NCc1ccc(Cl)cc1` it is 31.7 µg/mL (≈ 102 µM). `Nc1nc(Cl)c(C=O)c(N2CCCCC2)n1` displayed a kinetic solubility of 34.6 µg/mL (≈ 144 µM). The figure for `O=C(c1ccc2ccccc2c1)N1CCc2ccccc21` is below 0.6 µg/mL. In turn, `COc1ccc(Cl)cc1NC(=S)NCCO` yielded a solubility (kinetic) above 39.1 µg/mL. The figure for `COCCNC(=O)C(OC(=O)C1=Cc2ccccc2OC1)C(C)C` (centres undefined) is above 50 µg/mL; for `Cc1ccccc1NC(=S)NCCSc1ccc(Cl)cc1` it is 3.3 µg/mL (≈ 9.79 µM). The figure for `CN(CC(=O)Nc1ccccc1F)Cc1cccs1` is 30.1 µg/mL (≈ 108 µM); for `CC(=O)Nc1ccccc1OCC(=O)NCCC1=CCCCC1` it is above 47.5 µg/mL; for `Cc1ccnc(SCC(=O)NC2CCCCCC2)n1` it is 33 µg/mL (≈ 118 µM).

`O=C(Nc1ccno1)Nc1ccc(Cl)cc1Cl` returned a kinetic solubility of 5.4 µg/mL (≈ 19.8 µM). The figure for `O=C(Nc1ccccc1C(=O)Nc1ccccn1)c1ccccc1F` is 2 µg/mL (≈ 5.96 µM); for `CC(C)c1onc(C(=O)N2CCN(c3ccccc3)CC2)c1[N+](=O)[O-]` it is 1.9 µg/mL (≈ 5.52 µM). The figure for `O=C(O)c1cc2c(=O)c3ccccc3oc2nc1C(F)(F)F` is above 46.4 µg/mL; for `NS(=O)(=O)c1ccc(CNC(=O)C2CCCN2C(=O)c2cccs2)cc1` (centres undefined) it is above 59 µg/mL. Regarding `COc1ccc(Nc2cc(Sc3ccc(OC)cc3)ncn2)cc1`, the solubility (kinetic) was 4.6 µg/mL (≈ 13.6 µM). The figure for `CCC12CN3CCN(CC(C3)/C1=N\NC(=O)c1ccc(Cl)cc1)C2` is above 52 µg/mL. The figure for `COc1ccc2sc(NCc3ccccc3)nc2c1` is 2 µg/mL (≈ 7.4 µM); for `COc1cc2ncnc(NCc3ccco3)c2cc1OC` it is 38.9 µg/mL (≈ 136 µM). The figure for `CCOc1ncccc1C(=O)OCC(=O)NC(=O)NC(C)C` is 44.6 µg/mL (≈ 144 µM).

Consider `CC1CC(C)CN(C(=O)CSCC(=O)O)C1` (centres undefined), for which the solubility (kinetic) is above 36.8 µg/mL.

Turning to `CSc1ccc(CNCCCSc2ncccn2)cc1.Cl`, the solubility (kinetic) is above 51.3 µg/mL.

For the molecule `O=S(=O)(NC1CCSc2ccccc21)c1ccc(Cl)nc1` (centres undefined), the kinetic solubility came to 11.6 µg/mL (≈ 34 µM).

For `CN1CCCN(Cc2cccc3ccccc23)CC1`, the kinetic solubility was found to be 24.7 µg/mL (≈ 97.1 µM). As for `CCC1CCCCN1C(=O)COc1ccc(F)cc1` (centres undefined), the solubility (kinetic) came to 38.1 µg/mL (≈ 144 µM).

Consider `CSCC[C@H](NC(=O)c1cccc(S(=O)(=O)N2CCN(C)CC2)c1)c1nc2ccccc2[nH]1`, for which the kinetic solubility was above 73.1 µg/mL.

On to `CCn1c(=O)c(-c2nc3ccccc3[nH]2)c(O)c2ccccc21`, for which the kinetic solubility was below 0.2 µg/mL. The figure for `O=C(O)COCC(=O)Nc1ccc(-n2cnnn2)cc1` is above 41.6 µg/mL; for `Cc1ccc(S(=O)(=O)CCN2CCN(c3ccccc3)CC2)cc1` it is 45.7 µg/mL (≈ 133 µM). The figure for `CCc1ccc(OCCn2ccnc2)cc1` is 19.7 µg/mL (≈ 91.1 µM).
